According to patent US20260070886A1, “QUINOLINE PIPERAZINE DERIVATIVES, PHARMACEUTICAL COMPOSITION AND USES THEREOF” (priority 2022, published 2026):

What was measured:
NCI-H-522 cells = experiment: Cell cytotoxicity assay, NCI-H-522 cells; type: cell-based; conditions: Homo sapiens, NCI-H522, 72 hours, percent cytotoxicity against DMSO control; for cytotoxicity at 1 µM: 1 μM compound, read-out: Cell toxicity NCI-H-522 cells 1 μM; for cytotoxicity at 10 µM: 10 μM compound, read-out: Cell toxicity NCI-H-522 cells 10 μM
Source text: (§1) The following human derived non-small cell lung cancer cell lines were used to test the efficiency of the compounds to cause cell death and assess the anti-cancer properties of said compounds: 1. A549 cells: adenocarcinomic human alveolar basal epithelial cells; these cells are used as models for the study of lung cancer and the development of drug therapies against it • 2. NCI-H-460 cells are also human lung cancer cells, and • 3. NCI-H-522 cells are also human lung cancer cells.
(§2) 500 cells/well/30 μL were seeded in a 384 well cell culture plate. Incubated over night at 37° C., 5% CO2 in cell culture incubator. 10 μL of 4× compound was added to the plates, and incubated for 72 hours at 37° C., 5% CO2 in cell culture incubator. Assay DMSO control were included for 0% cytotoxicity control. Assay was terminated by addition of 10 μL of the reagent CTG 2.0 detection reagent #G9242. Plates were incubated for 20 minute incubation at room temperature with shaking Plate were read in Envision. Ultrasensitive luminescence and data was analyzed and percent cytotoxicity of compounds was determined against DMSO control.
(§3) All the compounds, A1-A116, were tested for cell toxicity using said non-small cell lung cancer cell lines using the above described method.

[1] = test system: Non-small cell lung cancer cell lines; experiment: Cell toxicity assay, overall statement; type: cell-based; conditions: summary in words of Table 6
Source text: as §1, §2, §3
These selected derivatives of Formula A were further tested to confirm their efficiency as anti-cancer compounds.

NCI-H-460 cells = experiment: Cell cytotoxicity assay, NCI-H-460 cells; type: cell-based; conditions: Homo sapiens, NCI-H460, 72 hours, percent cytotoxicity against DMSO control; for cytotoxicity at 1 µM: 1 μM compound, read-out: Cell toxicity NCI-H-460 cells 1 μM; for cytotoxicity at 10 µM: 10 μM compound, read-out: Cell toxicity NCI-H-460 cells 10 μM
Source text: as §1, §2, §3

NCI-H-522 = experiment: CellTiter Glo assay, NCI-H-522; type: cell-based; conditions: Homo sapiens, NCI-H522; 72 hours, 10 point DRC, 100 μM top; read-out: Cytotoxicity IC50 NCI-H-522
Source text: as §1
(§4) Cells were cultured and maintained in F12K+10% FBS+1× anti-anti media and RPMI+10% FBS+1× anti-anti media. Cells were trypsinised and expanded to ensure that cells are not over-confluent and are in log growth phase. On day 0, 500 cells/well were seeded in 30 μl media using cell culture treated white flat bottom 384 well plate, centrifuged at 40×g for 10 seconds and incubated overnight in […], 5% CO2 incubator. On day 1, 4× concentration of compounds were prepared in complete media, 10 μl was added to cells, centrifuged at 40×g for 10 seconds and incubated 72 hours in 37° C., 5% CO2 incubator. Compounds tested: 100 μM top, 3 fold dilution and 10 point DRC in triplicate. Final DMSO concentration was maintained at 0.5% for all compound. No compound/DMSO was used as a control. On day 4 (72 hours post treatment) plates were brought to room temperature for 10 min 10 μl of CellTiter Glo reagent was added to each well and placed the plates on an orbital shaker for 10 minutes at room temperature. Luminescence signal was read on the Envision plate reader using the ultra-sensitive luminescence protocol. Data was plotted and analyzed using the below formula: DMSO control treated cells RLU considered as 100% cell viability.
(§5) Table 7 provides the IC50 values for cell toxicity of most efficient derivatives of Formula A.

NCI-H-460 = experiment: CellTiter Glo assay, NCI-H-460; type: cell-based; conditions: Homo sapiens, NCI-H460; 72 hours, 10 point DRC, 100 μM top; read-out: Cytotoxicity IC50 NCI-H-460
Source text: as §1, §4, §5

[2] = test system: Non-small cell lung cancer cell lines; experiment: Cell Titer Glo assay, overall statement; type: cell-based, human; conditions: summary in words
Source text: as §1, §4, §5

A549 cells = experiment: Cell cytotoxicity assay, A549 cells; type: cell-based; conditions: Homo sapiens, 72 hours, percent cytotoxicity against DMSO control; for cytotoxicity at 1 µM: 1 μM compound, read-out: Cell toxicity A549 cells 1 μM; for cytotoxicity at 10 µM: 10 μM compound, read-out: Cell toxicity A549 cells 10 μM
Source text: as §1, §2, §3

A549 = experiment: CellTiter Glo assay, A549; type: cell-based; conditions: Homo sapiens, 72 hours, 10 point DRC, 100 μM top, read-out: Cytotoxicity IC50 A549
Source text: as §1, §4, §5

SMILES: COc1cc(Nc2nc(N3CCN(c4ccnc5cc(F)ccc45)CC3)cc(C(F)(F)F)n2)cc(OC)c1 [Compound A49, N-(3,5-dimethoxyphenyl)-4-(4-(7-fluoroquinolin-4-yl)piperazin-1-yl)-6-(trifluoromethyl)pyrimidin-2-amine]
- cytotoxicity at 1 µM (NCI-H-522 cells): 45%
- cytotoxicity at 10 µM (NCI-H-522 cells): 77%
- activity against Non-small cell lung cancer (cell toxicity) [1]: active
- cytotoxicity at 1 µM (NCI-H-460 cells): 3%
- cytotoxicity at 10 µM (NCI-H-460 cells): 59%
- IC50 (NCI-H-522): 1.84 µM
- IC50 (NCI-H-460): 0.842 µM
- efficiency in cell toxicity against Non-small cell lung cancer cell lines [2]: best efficiency
- cytotoxicity at 1 µM (A549 cells): 64%
- cytotoxicity at 10 µM (A549 cells): 99%
- IC50 (A549): 0.576 µM

SMILES: COc1cc(Nc2nc(C)cc(N3CCN(c4ccnc5cc(F)ccc45)CC3)n2)cc(OC)c1 [Compound A48, N-(3,5-dimethoxyphenyl)-4-(4-(7-fluoroquinolin-4-yl)piperazin-1-yl)-6-methylpyrimidin-2-amine]
- cytotoxicity at 1 µM (NCI-H-522 cells): 16%
- cytotoxicity at 10 µM (NCI-H-522 cells): 71%
- activity against Non-small cell lung cancer (cell toxicity) [1]: active
- cytotoxicity at 1 µM (NCI-H-460 cells): 0%
- cytotoxicity at 10 µM (NCI-H-460 cells): 66%
- IC50 (NCI-H-522): 3.24 µM
- IC50 (NCI-H-460): 1.84 µM
- efficiency in cell toxicity against Non-small cell lung cancer cell lines [2]: best efficiency
- cytotoxicity at 1 µM (A549 cells): 57%
- cytotoxicity at 10 µM (A549 cells): 98%
- IC50 (A549): 0.818 µM

SMILES: COc1cncc(Nc2nc(N3CCN(c4ccnc5cc(Cl)ccc45)CC3)cc(C(F)(F)F)n2)c1 [Compound A7, 4-(4-(7-chloroquinolin-4-yl)piperazin-1-yl)-N-(5-methoxypyridin-3-yl)-6-(trifluoromethyl)pyrimidin-2-amine]
- cytotoxicity at 1 µM (NCI-H-522 cells): 18%
- cytotoxicity at 10 µM (NCI-H-522 cells): 42%
- activity against Non-small cell lung cancer (cell toxicity) [1]: active
- cytotoxicity at 1 µM (NCI-H-460 cells): -1%
- cytotoxicity at 10 µM (NCI-H-460 cells): 25%
- IC50 (NCI-H-522): 2.56 µM
- IC50 (NCI-H-460): 3.42 µM
- efficiency in cell toxicity against Non-small cell lung cancer cell lines [2]: best efficiency
- cytotoxicity at 1 µM (A549 cells): 53%
- cytotoxicity at 10 µM (A549 cells): 65%
- IC50 (A549): 4.19 µM

SMILES: COc1cc(Nc2nc(N3CCN(c4ccnc5ccccc45)CC3)cc(C(F)(F)F)n2)cc(OC)c1 [Compound A43, N-(3,5-dimethoxyphenyl)-4-(4-(quinolin-4-yl)piperazin-1-yl)-6-(trifluoromethyl)pyrimidin-2-amine]
- cytotoxicity at 1 µM (NCI-H-522 cells): 48%
- cytotoxicity at 10 µM (NCI-H-522 cells): 73%
- activity against Non-small cell lung cancer (cell toxicity) [1]: active
- cytotoxicity at 1 µM (NCI-H-460 cells): 8%
- cytotoxicity at 10 µM (NCI-H-460 cells): 65%
- IC50 (NCI-H-522): 1.23 µM
- IC50 (NCI-H-460): 0.943 µM
- efficiency in cell toxicity against Non-small cell lung cancer cell lines [2]: best efficiency
- cytotoxicity at 1 µM (A549 cells): 88%
- cytotoxicity at 10 µM (A549 cells): 99%
- IC50 (A549): 0.665 µM

SMILES: COc1cc(Nc2nc(N3CCN(c4ccnc5cc(Cl)ccc45)CC3)cc(C(F)(F)F)n2)cc(OC)c1 [Compound A1, 4-(4-(7-chloroquinolin-4-yl)piperazin-1-yl)-N-(3,5-dimethoxyphenyl)-6-(trifluoromethyl)pyrimidin-2-amine]
- cytotoxicity at 1 µM (NCI-H-522 cells): 21%
- cytotoxicity at 10 µM (NCI-H-522 cells): 50%
- activity against Non-small cell lung cancer (cell toxicity) [1]: active
- cytotoxicity at 1 µM (NCI-H-460 cells): 19%
- cytotoxicity at 10 µM (NCI-H-460 cells): 82%
- IC50 (NCI-H-522): 3.04 µM
- IC50 (NCI-H-460): 2.41 µM
- efficiency in cell toxicity against Non-small cell lung cancer cell lines [2]: best efficiency
- cytotoxicity at 1 µM (A549 cells): 42%
- cytotoxicity at 10 µM (A549 cells): 97%
- IC50 (A549): 1.59 µM

SMILES: COc1cc(Nc2nc(C)cc(N3CCN(c4ccnc5ccccc45)CC3)n2)cc(OC)c1 [Compound A42, N-(3,5-dimethoxyphenyl)-4-methyl-6-(4-(quinolin-4-yl)piperazin-1-yl)pyrimidin-2-amine]
- cytotoxicity at 1 µM (NCI-H-522 cells): 20%
- cytotoxicity at 10 µM (NCI-H-522 cells): 80%
- activity against Non-small cell lung cancer (cell toxicity) [1]: active
- cytotoxicity at 1 µM (NCI-H-460 cells): 4%
- cytotoxicity at 10 µM (NCI-H-460 cells): 67%
- IC50 (NCI-H-522): 4.21 µM
- IC50 (NCI-H-460): 2.35 µM
- efficiency in cell toxicity against Non-small cell lung cancer cell lines [2]: best efficiency
- cytotoxicity at 1 µM (A549 cells): 68%
- cytotoxicity at 10 µM (A549 cells): 98%
- IC50 (A549): 1.01 µM
